The values below come from US7560454B2, “Condensed azepines as vasopressin agonists” (Vantia Limited, priority 2000, dated 2009).

SMILES strings stand for the structures.

For the experiment, the system named is Brattleboro rat. Put plainly: inhibition of urine output in Brattleboro rats. Format: in vivo. To be noted: 1 mg/kg p.o. in methylcellulose, vs control animals. As to the method: The Brattleboro rat is a recognised model for vasopressin deficiency (for a review see F D Grant, “Genetic models of vasopressin deficiency”, Exp. Physiol. 85, 203S-209S, 2000). […] Compounds of the invention were administered to Brattleboro rats (0.1-10 mg/kg p.o. in methylcellulose. Urine was collected hourly and volumes were compared with control animals. Animals had free access to food and water throughout the experiment. Representative results are given in the Table. Results for Desmopressin are given for comparison.

As to `Cc1cc(C(=O)N2CCCCc3ccccc32)ccc1CNC(=O)N1CCC[C@H]1C(=O)N(C)C` [Example 1, 1-(2-Methyl-4-(2,3,4,5-tetrahydro-1-benzazepin-1-ylcarbonyl)benzylcarbamoyl)-L-proline-N,N-dimethylamide], the “% inhibition of urine output (at 1 hour)” value turned out to be 82%.
